{
  "source": "patent US7590493B2",
  "about": "“Methods for determining hepatotoxins” (priority 2000, dated 2009)",
  "key": {"[1]": {"details": "cited from earlier work"}, "[2]": {"details": "in vivo; cited from earlier work"}, "[3]": {"details": "24 hours, cited from earlier work"}, "[4]": {"experiment": "Inventors' rat studies: liver pathology and clinical chemistry"}, "[5]": {"details": "amitriptyline 600 mg/kg oral, PB 80 mg/kg IP, cited from earlier work; for microsomal phosphatidylcholine content: 6-24 hr"}, "[6]": {"details": "cited from earlier work", "remark": "listed apart in the source"}, "c-fos, c-jun, c-myc": {"test_system": "c-fos, c-jun, c-myc", "details": "post dose, acute administration; cited from earlier work"}, "[7]": {"test_system": "human hepatoma cell lines", "details": "in vitro; cited from earlier work"}, "primary rat hepatocytes": {"test_system": "primary rat hepatocytes", "details": "in vitro; cited from earlier work"}, "[8]": {"details": "cited from earlier work", "remark": "listed apart in the source"}, "[9]": {"details": "single dose, within 24 hours (Fracasso 1990); cited from earlier work"}, "[10]": {"details": "single oral dose 600 mg/kg, cited from earlier work"}},
  "data": [
    {"compound": "C#C[C@]1(O)CC[C@H]2[C@@H]3CCc4cc(O)ccc4[C@H]3CC[C@@]21C", "note": "[17α-ethinylestradiol]", "values": [
      {"measurement": "bile flow", "setting": "[1]; after 3 days of drug administration", "value": "decrease"},
      {"measurement": "plasma cholesterol and plasma triglyceride levels", "setting": "[1]; rat, in vivo", "value": "decrease"},
      {"measurement": "plasma levels of bilirubin, bile salts, AST and ALT", "setting": "[1]; rat, in vivo", "value": "not changed"}
    ]},
    {"compound": "S=C=Nc1cccc2ccccc12", "note": "[ANIT, alpha-naphthylisothiocyante]", "values": [
      {"measurement": "liver weight vs control-treated", "setting": "[2]", "value": "significantly heavier"},
      {"measurement": "serum ALT, gamma-glutamyl transpeptidase, total bilirubin, lipid peroxide and total bile acids", "setting": "[2]", "value": "significant increases"},
      {"measurement": "levels of total bilirubin, alkaline phosphatase, serum glutamic oxaloacetic transaminase and serum glutamic pyruvic transaminase", "setting": "[3]; 80 mg/kg oral in olive oil", "value": "significantly increased"},
      {"measurement": "total bile flow", "setting": "[3]; 80 mg/kg oral", "value": "reduced"}
    ]},
    {"compound": "CCOC(=O)C(C)(C)Oc1ccc(Cl)cc1", "note": "[Clofibrate]", "values": [
      {"measurement": "hepatocellular alterations", "setting": "[4]; following early AST/ALT increases", "value": "dose-dependent"},
      {"measurement": "mitosis rates / mitotic activity", "setting": "[4]; rat liver", "value": "increased"},
      {"measurement": "AST and ALT levels", "setting": "[4]; rat, in vivo", "value": "early increases"}
    ]},
    {"compound": "CCC1(c2ccccc2)C(=O)NC(=O)NC1=O", "note": "[PB, phenobarbital]", "values": [
      {"measurement": "microsomal phosphatidylcholine content", "setting": "[5]", "value": "increase"}
    ]},
    {"compound": "ClC(Cl)(Cl)Cl", "note": "[CCl4, carbon tetrachloride]", "values": [
      {"measurement": "ALT and AST peak levels, increase", "setting": "[6]; 0.1, 1, 2, 3, 4 mL/kg ip, […] po, within 48 hours post dose", "value": "5-10 fold"},
      {"measurement": "serum α-glutathione s-transferase (α-GST) levels", "setting": "[6]; 25 μL/kg po, as early as 2 hours", "value": "Significant increases"},
      {"measurement": "time of peak hepatic mRNA level, c-fos", "setting": "c-fos, c-jun, c-myc", "value": "1 to 2", "unit": "h"},
      {"measurement": "time of peak hepatic mRNA level, c-jun", "setting": "c-fos, c-jun, c-myc", "value": 3, "unit": "h"},
      {"measurement": "time of peak hepatic mRNA level, c-myc", "setting": "c-fos, c-jun, c-myc", "value": 1, "unit": "h"}
    ]},
    {"compound": "O=C(CCN1CCN2CCCC2C1)N1c2ccccc2Sc2ccc(Cl)cc21", "note": "(stereo not shown) [AY-25329]", "values": [
      {"measurement": "mitosis rates / mitotic activity", "setting": "[4]; rat liver", "value": "increased"},
      {"measurement": "glycogen levels", "setting": "[4]; rat liver, all rats examined", "value": "decreased"}
    ]},
    {"compound": "Nc1c2c(nc3ccccc13)CCCC2", "note": "[tacrine]", "values": [
      {"measurement": "cytotoxicity", "setting": "[7]", "value": "displayed cytotoxicity"},
      {"measurement": "cytotoxicity", "setting": "primary rat hepatocytes", "value": "displayed cytotoxicity"}
    ]},
    {"compound": "CC(=O)O[C@]1(C(C)=O)CC[C@H]2[C@@H]3C=C(Cl)C4=CC(=O)[C@@H]5C[C@@H]5[C@]4(C)[C@H]3CC[C@@]21C", "note": "[CPA, cyproterone acetate]", "values": [
      {"measurement": "occurrence of S phase cells", "setting": "[8]; rat liver", "value": "increased"},
      {"measurement": "DNA repair activity", "setting": "[8]; single oral dose 100 mg CPA/kg body weight, after 16 hours", "value": "continuous DNA repair activity was observed"}
    ]},
    {"compound": "COc1ccc2c(c1)c(CC(=O)O)c(C)n2C(=O)c1ccc(Cl)cc1", "note": "[indomethacin]", "values": [
      {"measurement": "liver and renal microsomal enzymes, including CYP450", "setting": "[9]", "value": "reduce"}
    ]},
    {"compound": "CC(O)(CS(=O)(=O)c1ccc(F)cc1)C(=O)Nc1ccc(C#N)c(C(F)(F)F)c1", "note": "(stereo not shown) [Bicalutamide]", "values": [
      {"measurement": "hepatocellular hypertrophy", "setting": "[4]; rat", "value": "minor degree"},
      {"measurement": "mitosis rates / mitotic activity", "setting": "[4]; rat liver", "value": "increase"}
    ]},
    {"compound": "CN(C)CCC=C1c2ccccc2CCc2ccccc21", "note": "[amitriptyline]", "values": [
      {"measurement": "aminolevulinic acid (ALA) activity", "setting": "[10]; 12 and 24 hours", "value": "marked increase"},
      {"measurement": "cytochrome P450 (CYP450) content", "setting": "[10]", "value": "remained the same"},
      {"measurement": "total heme and cytochrome b5 levels", "setting": "[10]", "value": "increased"},
      {"measurement": "microsomal phosphatidylcholine content", "setting": "[5]", "value": "increase"},
      {"measurement": "levels of GAT and PCT", "setting": "[5]", "value": "slightly affected"},
      {"measurement": "levels of PPH and CPT", "setting": "[5]", "value": "significantly altered"}
    ]}
  ]
}
